These are literature values, as cited in patent publication US12403291B2, “Submucosal bioresorbable drug eluting platform” (Intersect ENT, Inc., priority 2019, dated 2025).

The conditions of this series: MF per gram of tissue.

Regarding `C[C@@H]1C[C@H]2[C@@H]3CCC4=CC(=O)C=C[C@]4(C)[C@@]3(Cl)[C@@H](O)C[C@]2(C)[C@@]1(OC(=O)c1ccco1)C(=O)CCl` [Mometasone furoate, mometasone furoate], the “concentration level of therapeutic effectiveness” value was 0.1 µg/g.
